We go through nine molecules from patent US20250017834A1, “SUNSCREEN COMPOSITIONS COMPRISING IMINE ANALOGS OF A SUNSCREEN COMPRISING A KETONE” (Curie Co. Inc., priority 2020, published 2025).

Holding throughout (format): physicochemical
Series [1] is described as follows: UV/Vis spectral properties (UVA, UVB and visible absorption), Cary-50 spectrophotometer. The settings on record: for Absorption spectra compared to oxybenzone: 5 mM (N-Boc-Imine-6 also 0.05 mM), FIG. 3; for UV absorption properties compared to oxybenzone: 5 mM or 0.05 mM, FIG. 1. On the procedure: Imine-1, Imine-2, and Imine-3 were synthesized, purified, and isolated (see above). All three compounds were separately dissolved in acetonitrile to a final concentration of 5 mM (FIG. 1) or 0.05 mM (FIG. 1, inset) and analyzed by UV/Vis (Cary-50 Spectrophotomer). The spectral properties were compared to oxybenzone in acetonitrile.
Carbamate-1, first described in U.S. Pat. No. 5,490,980A, was synthesized, purified, and isolated (see above). Carbamate-1 was dissolved in acetonitrile to a final concentration of 0.05 mM and analyzed by UV/Vis (Cary-50 Spectrophotomer). The spectral properties were compared to oxybenzone in acetonitrile at a final concentration of 0.05 mM.
Imine-4, Imine-5, and N-Boc-Imine-6 were synthesized, purified, and isolated (see above). All three compounds were separately dissolved in acetonitrile to a final concentration of 5 mM (FIG. 3) and analyzed by UV/Vis (Cary-50 Spectrophotomer). N-Boc-Imine-6 was diluted in acetonitrile to a final concentration of 0.05 mM (FIG. 3, inset) and analyzed by UV/Vis. […] Spectral properties were compared to oxybenzone in acetonitrile at the same concentration.
To understand the solution stability of the Boc-protected imines in protic solvent, N-Boc-Imine-6 was prepared in ethanol in the presence of catalytic glacial acetic acid. Briefly, to a solution of oxybenzone (0.10 g, 0.438 mmol, 1 eq) and N-Boc-1,6-hexanediamine (0.094 g, 0.43 mmol, 1 eq) in ethanol (0.3 mL) was added catalytic glacial acetic acid (1 μL). The reaction mixture was agitated at 900 rpm at 70° C. for 16 hr and monitored by LCMS. […] The reaction was then diluted in ethanol to final concentration of 0.04 mM and analyzed by UV/Vis spectroscopy.
N-Boc-Imine-8 and Imine-8 was synthesized, purified, and isolated (see above). N-Boc-Imine-8 and Imine-8 were dissolved in ethanol to a final concentration of 0.032 mM and 8 mM, respectively (FIG. 6) and analyzed by UV/Vis. (Cary-50 Spectrophotomer). Spectral properties were compared to sulisobenzone in ethanol at similar concentration.
Imine-10 was first dissolved in methyl tert-butyl ether and then diluted in ethanol to a final concentration of 5 mM and 0.04 mM (FIG. 7) and analyzed by UV/Vis. (Cary-50 Spectrophotomer). Spectral properties were compared to oxybenzone at similar concentration.

A short description of series [2]: Solution stability of Boc-protected imine in protic solvent (ethanol), LCMS and UV/Vis. The settings on record: 70° C., over 24 hours, catalytic glacial acetic acid. As for the experimental part: To understand the solution stability of the Boc-protected imines in protic solvent, N-Boc-Imine-6 was prepared in ethanol in the presence of catalytic glacial acetic acid. Briefly, to a solution of oxybenzone (0.10 g, 0.438 mmol, 1 eq) and N-Boc-1,6-hexanediamine (0.094 g, 0.43 mmol, 1 eq) in ethanol (0.3 mL) was added catalytic glacial acetic acid (1 μL). The reaction mixture was agitated at 900 rpm at 70° C. for 16 hr and monitored by LCMS. Full reaction of the starting material to a single product peak was observed by LCMS indicating completion. The reaction was then diluted in ethanol to final concentration of 0.04 mM and analyzed by UV/Vis spectroscopy. […] Additionally, the Boc-protecting group remained intact throughout the reaction and UV/Vis analysis.

Series [3] in a line: Solubility in acetonitrile.

The structures appear in SMILES notation.

Consider `CCCCCCOC(=O)c1ccccc1/C(=N/CCCCCCN)c1cccc(N(CC)CC)c1O` [Imine-9], for which, in series [1] (data not shown), the “Absorbance spectra of DHHB-derived imines” value was “red shift of the absorbance spectra, which extends to the visible region”. `COc1ccc(/C(=N/CCCCCCNC(=O)OC(C)(C)C)c2ccccc2)c(O)c1` [N-Boc-Imine-6]: the “Absorption spectra compared to oxybenzone” value in series [1] (acetonitrile) was “encompassed the UVA-1, UVA-2, and UVB regions as well as the visible region of the spectrum (greater than 400 nm)”. Also, the “Absorption spectrum in ethanol” value in series [1] (ethanol, 0.04 mM, reaction mixture diluted, FIG. 4) was “encompasses the UVA and UVB regions as well as the visible region of the spectrum (greater than 400 nm)”. In addition, the “Solution stability without reversion to starting ketone and amine” value in series [2] is reported as “stable”. Consider `COc1ccc(/C(=N/c2ccccc2)c2ccccc2)c(O)c1` [Imine-2], for which, in series [1] (acetonitrile), the “UV absorption properties compared to oxybenzone” value was “improved both UVA-1, UVA-2, and UVB absorption properties”. For the molecule `COc1ccc(/C(=N/CCCCCCN)c2ccccc2)c(O)c1` [Imine-6], the Solubility in acetonitrile result in series [3] is on record as “poor solubility”.

As to `COc1ccc(/C(=N/C(CCC(N)=O)C(=O)O)c2ccccc2)c(O)c1` (centres unmarked) [Imine-5], the “Absorption spectra compared to oxybenzone” value in series [1] (acetonitrile) was “encompassed the UVA-1, UVA-2, and UVB regions as well as the visible region of the spectrum (greater than 400 nm)”.

As for `COc1ccc(C(=O)c2ccccc2)c(OC(=O)NCCCCCCNC(=O)OC(C)(C)C)c1` [Carbamate-1, reference compound], in series [1] (acetonitrile, 0.05 mM, FIG. 2), the “UV filter properties compared to oxybenzone” value was “UVA blocking was reduced”.

On to `COc1ccc(/C(=N/O)c2ccccc2)c(O)c1` [Imine-3], for which, in series [1] (acetonitrile), the “UV absorption properties compared to oxybenzone” value is “loss in the UVA blocking and reduction in UVB blocking”. For the molecule `COc1ccc(/C(=N/Cc2ccccc2)c2ccccc2)c(O)c1` [Imine-1], the “UV absorption properties compared to oxybenzone” value in series [1] (acetonitrile) was “improved both UVA-1, UVA-2, and UVB absorption properties”. As to `COc1cc(O)c(/C(=N\CCCCCCN)c2ccccc2)cc1S(=O)(=O)O` [Imine-8], the “Absorbance compared to sulisobenzone” value in series [1] (ethanol, N-Boc-Imine-8 0.032 mM, Imine-8 8 mM, FIG. 6) was “retained absorbance in the UVB region and extended absorbance into the UVA region”.
